One molecule from patent EP0364584A1, “ANTIDOTE FOR ORGANIC PHOSPHORUS COMPOUND POISONING” (priority 1988, dated 1989) can be followed below.

In data set [1] the target is T1, Azetylcholinesterase des menschlichen Bluts (Homo sapiens, UniProt P22303).
T1 construct: Cholinesterase des Grundgerüstes der Erythrozyten des menschlichen Bluts; from tissue; host or cells: human erythrocyte stroma (ghosts)
The data set is described as follows: Reactivation in vitro of erythrocyte cholinesterase inhibited by organophosphorus compounds (potentiometric titration). Conditions: reactivator 1.10^-4 M01/1, 25°C, pH 7,5. The class given is biochemical.

Data set [2] deals with Kranken mit akuten peroralen Vergiftungen mit verschiedenen phosphororganischen Insektiziden. The data set is described as follows: Clinical study in patients with acute oral poisoning by organophosphorus insecticides. The class given is in vivo, Menschen. The source says:
Das erfindungsgemässe Arzneimittel wurde in der Klinik an Kranken mit akuten peroralen Vergiftungen mit verschiedenen phosphororganischen Insektiziden untersucht. Insgesamt wurden 183 Menschen behandelt, die in die Klinik gelangten. Daraus befanden sich 26 Menschen in einer leichten, 48 Kranke - in einer mässigen und 75 Kranke in einer schweren Vergiftungsstufe. Das Alter der Geschädigten schwankte von 15 bis 76 Jahren. Die Zeit des Behandlungsbeginns betrug I bis 12 stunden nach der Einnahme des Insektizids und in 28 Fällen wurde die Behandlung vor der Hospitalisierung begonnen.
Die therapeutische Effektivität des erfindungsgemässen Arzneimittels wurde mit der ähnlichen Wirkung des wirksamsten bekannten Präparats TMB-4 verglichen (insgesamt 50 Menschen) .
Das erfindungsgemässe Arzneimittel wurde in Kombination mit Atropin neben aktiven Methoden der Detoxikation ausgenutzt, die die Giftentfernung aus dem Organismus bezweckten und das Durchwaschen des Magens, die Verordnung von Abführungsmitteln, Siphon- und Abführungsklystieren, die Beschleunigung der Diurese, aktive symptomatische und Erhaltungstherapie, allgemein stärkenden Behandlung, Massnahmen zur Korrektion der Störungen des säurig-alkalischen und wässrigen und Elektrolytzustands einschliessen. […]

Data set [3] in a line: Acute toxicity, single administration, mice. Conditions: mouse, in vivo, Mäuse, read-out: LD50 (mg/kg) und deren zuverlässige Grenzen P = 0,05. The source says:
(§1) Die Toxizität des erfindungsgemässen Arzneimittels bei der einmaligen Einführung (die akute Toxizität) wurde an geschlechtsreifen Tieren (an Mäusen, Ratten, Katzen, Hunden) bestimmt. Die Analyse der experimentellen Angaben für Mäuse und Ratten wurde nach der Methode der Probit-Analyse nach Litchfield und Wilcoxon, und für Hunde und Katzen nach der Methode der Anreicherung der Frequenz nach Behrens durchgeführt.
(§2) Die Toxizitätsparameter LD50 wurden für Mause bei der intraperitonealen und subkutanen Einführung, für Ratten bei der subkutanen, intramuskulären und enteralen Einführung, für Katzen bei der intramuskulären Einführung und für Hunde bei der subkutanen Einführung bestimmt.

Data set [4] in a line: Acute toxicity, single administration, cats. Conditions: cat, in vivo, im; Katzen, intramuskulär; read-out: LD50 (mg/kg) und deren zuverlässige Grenzen P = 0,05.
From the text: as §1, §2

Structures are written as SMILES. Where two headings read alike, the source gives them in different places.

T1 sequence (P22303 other isoform, or with tags, fused parts or gaps): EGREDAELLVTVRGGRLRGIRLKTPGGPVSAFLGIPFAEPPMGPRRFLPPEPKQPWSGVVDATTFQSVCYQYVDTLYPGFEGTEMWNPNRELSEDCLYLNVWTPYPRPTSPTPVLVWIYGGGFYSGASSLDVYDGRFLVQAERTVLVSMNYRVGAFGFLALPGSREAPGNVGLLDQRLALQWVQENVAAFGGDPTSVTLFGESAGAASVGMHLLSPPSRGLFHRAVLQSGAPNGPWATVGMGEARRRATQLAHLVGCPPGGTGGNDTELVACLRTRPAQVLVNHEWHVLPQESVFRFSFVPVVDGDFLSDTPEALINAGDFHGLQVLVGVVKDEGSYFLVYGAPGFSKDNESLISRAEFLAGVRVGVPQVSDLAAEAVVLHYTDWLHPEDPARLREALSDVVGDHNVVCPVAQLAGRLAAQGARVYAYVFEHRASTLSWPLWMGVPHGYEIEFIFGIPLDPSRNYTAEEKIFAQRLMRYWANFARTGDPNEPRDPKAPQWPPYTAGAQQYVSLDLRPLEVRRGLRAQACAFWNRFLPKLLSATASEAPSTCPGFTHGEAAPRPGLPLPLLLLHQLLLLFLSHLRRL

With `C=CC[n+]1ccccc1C=NO` [das erfindungsgemässe Arzneimittel, N-Allyl-2-pyridinaldoxiinbromid], the activity at 100 µM in data set [1] (0.5 h, pH 7, inhibited with O,O-Dimethyl-(2,2,2-trichlor-1-oxyäthyl) phosphonat, 0,5 h, read-out: Aktivität der Azetylcholinesterase in % (Reaktivationszeit in Stunden) 0,5) turned out to be 53.6%; in data set [1] (0.5 h, pH 7, inhibited with O,O-Dimethyl-S-(1,2-dikarbäthoxyäthyl)-dithiophosphat, 0,5 h, read-out: Aktivität der Azetylcholinesterase in % (Reaktivationszeit in Stunden) 0,5) it was 48.1%; in data set [1] (1 h, pH 7, inhibited with O,O-Dimethyl-(2,2,2-trichlor-1-oxyäthyl) phosphonat, 1 h, read-out: Aktivität der Azetylcholinesterase in % (Reaktivationszeit in Stunden) 1), 72.2%; in data set [1] (1 h, pH 7, inhibited with O,O-Dimethyl-S-(1,2-dikarbäthoxyäthyl)-dithiophosphat, 1 h, read-out: Aktivität der Azetylcholinesterase in % (Reaktivationszeit in Stunden) 1) it was 75%; in data set [1] (2 h, pH 7, inhibited with O,O-Dimethyl-(2,2,2-trichlor-1-oxyäthyl) phosphonat, 2 h, read-out: Aktivität der Azetylcholinesterase in % (Reaktivationszeit in Stunden) 2), 72.3%; in data set [1] (2 h, pH 7, inhibited with O,O-Dimethyl-S-(1,2-dikarbäthoxyäthyl)-dithiophosphat, 2 h, read-out: Aktivität der Azetylcholinesterase in % (Reaktivationszeit in Stunden) 2), 78.1%. Moreover, in data set [2] (Einzeldosis 0,075 g, Kurdosis 0,4 bis 1,6 g), the “Nebenerscheinungen und Kontraindikationen” value was “keine Nebenerscheinungen und Kontraindikationen”. The “Kennziffer der Funktion der Leber und der Stoffwechselprozesse” value in data set [2] (Eiweissfraktion, Bilirubin, Transaminasenaktivität, Blutzucker, Elektrolyt- und Gaswechsel) is recorded as “zu deren Normalisierung beiträgt”. Moreover, the LD50 was 64 mg/kg in data set [3] (ip, intraperitoneal); 115 mg/kg in data set [3] (sc, subkutan); 126 mg/kg in data set [4].
